Source: patent US20190336610A1, “GLUCOSE-SENSITIVE PEPTIDE HORMONES” (GUBRA APS, priority 2016, published 2019)
Blank lines part the entries; values can stand above or below the compound they belong to.

How the values were obtained:
[1] = In vitro glucose sensing at different glucose concentration (UPLC-MS, formation of linker-glucose); assay type: physicochemical; settings: 0.42 mM linker, PBS pH 7.4, 37° C.
Protocol: The aim with the example is to evaluate the reaction rate of three different linkers at various glucose concentrations i.e. their ability to hydrolyse and react with glucose to form a linker glucose conjugate.
1.4 mg of linker 1 ((E)-N′-(3-(benzyloxy)propylidene)-4-methoxybenzohydrazide) was dissolved in 100 μL DMSO. 10 μL of the DMSO stock solution was added to 990 μL 1×PBS buffer pH 7.4, containing 1000 or 5000 equiv glucose, to give a final concentration of 0.42 mM of linker 1. The solutions were heated to 37° C. and analysed at different time points from 0 to 48 h by UPLC-MS (C18 column, acetonitrile/water/formic acid). The linker-glucose compound was analysed as percentage of the full conversion of the reaction.
1.3 mg and 1.4 mg of linker 14 ((E)-N′-(2-(benzyloxy)ethylidene)-4-methoxybenzohydrazide) and linker 15 ((E)-N′-(2-(benzyloxy)ethylidene)-2-hydroxy-4-methoxybenzohydrazide), respectively, was dissolved in 100 μL DMSO. 10 μL of each stock solution was added to 990 μL 1×PBS buffer pH 7.4 containing 1000, 5000 or 10,000 equiv glucose, to give a final linker concentration of 0.42 mM. The solutions were heated to 37° C. and analysed at different time points from 0 to 72 h by UPLC-MS (C18 column, acetonitrile/water/formic acid). The linker-glucose compounds were analysed as percentage of the full conversion of the reaction.

[2] = In vitro glucose sensing evaluation (LC-MS): reactivity of each linker towards glucose; assay type: physicochemical; settings: phosphate buffer pH 7, 1000 equiv glucose, 37° C.
Protocol: The aim with this example is to evaluate the reactivity of each linker towards glucose.
1-1.5 mg of linker was dissolved in 100 μL DMSO. Immediately after solvation, 5 μL was added to 995 μL phosphate buffer pH 7 containing 1000 equiv glucose. The mixture was heated to 37° C. and analysed continuously by LC-MS

lean rats = test: In vivo scITT in lean rats; settings: s.c., 5 U insulin-C18 or 0.5 U human insulin

% linker-glucose ([1]; 1000 equiv glucose, 0 h): 0%
% linker-glucose ([1]; 1000 equiv glucose, 1.5 h): 3%
% linker-glucose ([1]; 1000 equiv glucose, 2 h): 3%
% linker-glucose ([1]; 1000 equiv glucose, 3 h): 5%
% linker-glucose ([1]; 1000 equiv glucose, 3.17 h): 4%
% linker-glucose ([1]; 1000 equiv glucose, 3.5 h): 4%
% linker-glucose ([1]; 1000 equiv glucose, 3.75 h): 4%
% linker-glucose ([1]; 1000 equiv glucose, 4 h): 5%
% linker-glucose ([1]; 1000 equiv glucose, 4.5 h): 6%
% linker-glucose ([1]; 1000 equiv glucose, 4.75 h): 6%
% linker-glucose ([1]; 1000 equiv glucose, 5 h): 6%
% linker-glucose ([1]; 1000 equiv glucose, 5.5 h): 6%
% linker-glucose ([1]; 1000 equiv glucose, 6 h): 9%
% linker-glucose ([1]; 1000 equiv glucose, 7 h): 9%
% linker-glucose ([1]; 1000 equiv glucose, 24 h): 29%
% linker-glucose ([1]; 1000 equiv glucose, 48 h): 70%
% linker-glucose ([1]; 5000 equiv glucose, 0 h): 0%
% linker-glucose ([1]; 5000 equiv glucose, 0.75 h): 3%
% linker-glucose ([1]; 5000 equiv glucose, 1 h): 6%
% linker-glucose ([1]; 5000 equiv glucose, 1.25 h): 7%
% linker-glucose ([1]; 5000 equiv glucose, 1.5 h): 10%
% linker-glucose ([1]; 5000 equiv glucose, 1.75 h): 10%
% linker-glucose ([1]; 5000 equiv glucose, 2 h): 14%
% linker-glucose ([1]; 5000 equiv glucose, 2.5 h): 18%
% linker-glucose ([1]; 5000 equiv glucose, 7 h): 49%
Compound: COc1ccc(C(=O)N/N=C/CCOCc2ccccc2)cc1 [Linker 1, (E)-N′-(3-(benzyloxy)propylidene)-4-methoxybenzohydrazide]

% linker-glucose ([1]; 1000 equiv glucose, 0 h): 0%
% linker-glucose ([1]; 1000 equiv glucose, 24 h): 7%
% linker-glucose ([1]; 1000 equiv glucose, 54 h): 11%
% linker-glucose ([1]; 1000 equiv glucose, 72 h): 17%
% linker-glucose ([1]; 5000 equiv glucose, 0 h): 0%
% linker-glucose ([1]; 5000 equiv glucose, 24 h): 16%
% linker-glucose ([1]; 5000 equiv glucose, 54 h): 30%
% linker-glucose ([1]; 5000 equiv glucose, 72 h): 50%
% linker-glucose ([1]; 10,000 equiv glucose, 0 h): 0%
% linker-glucose ([1]; 10,000 equiv glucose, 6 h): 3%
% linker-glucose ([1]; 10,000 equiv glucose, 24 h): 39%
% linker-glucose ([1]; 10,000 equiv glucose, 54 h): 62%
% linker-glucose ([1]; 10,000 equiv glucose, 72 h): 87%
Compound: COc1ccc(C(=O)N/N=C/COCc2ccccc2)cc1 [Linker 14, (E)-N′-(2-(benzyloxy)ethylidene)-4-methoxybenzohydrazide]

Linker-glucose observed [2]: ≤ 5 h
% linker-glucose ([1]; 1000 equiv glucose, 0 h): 0%
% linker-glucose ([1]; 1000 equiv glucose, 2 h): 1%
% linker-glucose ([1]; 1000 equiv glucose, 4 h): 3%
% linker-glucose ([1]; 1000 equiv glucose, 6 h): 5%
% linker-glucose ([1]; 1000 equiv glucose, 24 h): 21%
% linker-glucose ([1]; 1000 equiv glucose, 48 h): 35%
% linker-glucose ([1]; 5000 equiv glucose, 0 h): 0%
% linker-glucose ([1]; 5000 equiv glucose, 1 h): 2%
% linker-glucose ([1]; 5000 equiv glucose, 2 h): 6%
% linker-glucose ([1]; 5000 equiv glucose, 4 h): 12%
% linker-glucose ([1]; 5000 equiv glucose, 6 h): 21%
% linker-glucose ([1]; 5000 equiv glucose, 24 h): 68%
% linker-glucose ([1]; 5000 equiv glucose, 48 h): 98%
% linker-glucose ([1]; 10,000 equiv glucose, 0 h): 0%
% linker-glucose ([1]; 10,000 equiv glucose, 1 h): 9%
% linker-glucose ([1]; 10,000 equiv glucose, 2 h): 15%
% linker-glucose ([1]; 10,000 equiv glucose, 4 h): 33%
% linker-glucose ([1]; 10,000 equiv glucose, 6 h): 44%
% linker-glucose ([1]; 10,000 equiv glucose, 24 h): 89%
% linker-glucose ([1]; 10,000 equiv glucose, 48 h): 99%
Compound: COc1ccc(C(=O)N/N=C/COCc2ccccc2)c(O)c1 [Linker 15, (E)-N′-(2-(benzyloxy)ethylidene)-2-hydroxy-4-methoxybenzohydrazide]

Compound: Human insulin: human insulin, the unmodified peptide hormone used as comparator
Blood glucose % of vehicle (±SEM) (lean rats; 0 min (before)): 95 ± 3%
Blood glucose % of vehicle (±SEM) (lean rats; 60 min): 64 ± 4%
Blood glucose % of vehicle (±SEM) (lean rats; 120 min): 55 ± 6%
Blood glucose % of vehicle (±SEM) (lean rats; 180 min): 66 ± 7%
Blood glucose % of vehicle (±SEM) (lean rats; 240 min): 76 ± 4%
Blood glucose % of vehicle (±SEM) (lean rats; 300 min): 76 ± 4%
